Among the data in patent publication US8217035B2, “Pyrimidine derivatives used as PI-3-kinase inhibitors” (Novartis AG, priority 2006, dated 2012) are EC50 and IC50 values, retold here.

For test [1], the system named is A2780 ovarian cancer cells. The experiment in a line: Cellular proliferation in A2780 cells, Cell Titer Glo (Biological Method 4). In kind it is cell-based. Particulars: Homo sapiens; ovarian cancer cell line A2780, Biological Method 4. Here is the method: In addition, many of the compounds of Table 1 were tested to determine their inhibitory activity in a cellular proliferation assay according to Biological Method 4.
The ability of the compounds of the invention to inhibit cellular proliferation were determined by using Cell Titer Glo, a commercially available assay from Promega Corporation. A2780 ovarian cancer cells were seeded in TC treated 96-well plates at a density of 1,000 per well in DMEM, 10% FBS, 1% Sodium Pyruvate, and 1% Penicillin Streptomycin for a minimum of 2 hrs prior to addition of compound. For each concentration of test compound, 2 μl (500×) aliquots of compound or 100% DMSO diluted in 500 μl of culture medium for 2× concentration then diluted 1× on the Cells. Cells were incubated for 72 hrs at 37° C., 5% CO2. After the 72 hour incubation, Cell Titer Glo reagent is added to determine number of viable cells remaining after exposure to the compound, and the EC50 value was calculated. The assay was performed according to the manufacturer's instruction (Promega Corporation, Madison, Wis. USA). Each experimental condition was performed in duplicate.
For orientation: ATP-based viability assays read luminescence as a measure of living cells.

The next test deals with PI3 kinase alpha (Homo sapiens, UniProt P42336). The experiment in a line: PI3K ATP depletion assay (Biological Method 1, Assay 3; KinaseGlo luminescence). In kind it is biochemical. Particulars: ATP depletion assay, Biological Method 1; read-out: PI3 Kinase Alpha, IC50. In outline:
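Compound in DMSO was mixed with 10 nM PI3 kinase and 5 μg/mL phosphatidylinositol, and the reaction was started with 2 μM ATP. It ran to about 50% ATP depletion and was stopped with KinaseGlo.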
On the technique in general: Kinase-Glo measures the ATP left after a reaction by luminescence.

Chain of PI3 kinase alpha (P42336 whole entry): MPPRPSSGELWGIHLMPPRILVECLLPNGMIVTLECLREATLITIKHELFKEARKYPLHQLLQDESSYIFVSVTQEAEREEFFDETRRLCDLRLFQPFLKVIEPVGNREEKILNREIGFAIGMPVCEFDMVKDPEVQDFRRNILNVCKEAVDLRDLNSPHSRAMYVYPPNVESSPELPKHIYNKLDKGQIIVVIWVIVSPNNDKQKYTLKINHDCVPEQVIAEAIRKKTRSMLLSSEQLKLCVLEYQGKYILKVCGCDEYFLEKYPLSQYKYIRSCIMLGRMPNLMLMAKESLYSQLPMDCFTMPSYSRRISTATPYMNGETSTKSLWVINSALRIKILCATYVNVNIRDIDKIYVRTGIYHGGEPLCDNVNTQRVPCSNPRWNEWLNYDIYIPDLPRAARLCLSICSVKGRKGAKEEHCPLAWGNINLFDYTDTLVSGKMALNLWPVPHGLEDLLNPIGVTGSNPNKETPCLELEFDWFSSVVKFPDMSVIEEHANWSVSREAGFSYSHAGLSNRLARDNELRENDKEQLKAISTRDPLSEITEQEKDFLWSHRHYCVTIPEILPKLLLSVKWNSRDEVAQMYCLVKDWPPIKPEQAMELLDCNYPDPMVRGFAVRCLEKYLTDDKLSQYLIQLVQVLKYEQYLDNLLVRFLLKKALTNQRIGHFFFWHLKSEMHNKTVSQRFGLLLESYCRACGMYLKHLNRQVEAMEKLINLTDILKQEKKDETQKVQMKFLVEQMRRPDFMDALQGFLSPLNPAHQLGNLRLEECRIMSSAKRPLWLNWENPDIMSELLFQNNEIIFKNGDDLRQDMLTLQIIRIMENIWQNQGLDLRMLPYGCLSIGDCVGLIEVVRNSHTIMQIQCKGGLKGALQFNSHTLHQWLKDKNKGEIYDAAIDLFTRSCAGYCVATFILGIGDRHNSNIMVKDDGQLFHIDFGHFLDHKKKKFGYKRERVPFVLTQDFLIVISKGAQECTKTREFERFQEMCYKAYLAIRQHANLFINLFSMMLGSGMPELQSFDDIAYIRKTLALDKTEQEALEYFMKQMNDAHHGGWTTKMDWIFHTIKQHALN
Chain of PI3 kinase alpha (P27986 whole entry partner): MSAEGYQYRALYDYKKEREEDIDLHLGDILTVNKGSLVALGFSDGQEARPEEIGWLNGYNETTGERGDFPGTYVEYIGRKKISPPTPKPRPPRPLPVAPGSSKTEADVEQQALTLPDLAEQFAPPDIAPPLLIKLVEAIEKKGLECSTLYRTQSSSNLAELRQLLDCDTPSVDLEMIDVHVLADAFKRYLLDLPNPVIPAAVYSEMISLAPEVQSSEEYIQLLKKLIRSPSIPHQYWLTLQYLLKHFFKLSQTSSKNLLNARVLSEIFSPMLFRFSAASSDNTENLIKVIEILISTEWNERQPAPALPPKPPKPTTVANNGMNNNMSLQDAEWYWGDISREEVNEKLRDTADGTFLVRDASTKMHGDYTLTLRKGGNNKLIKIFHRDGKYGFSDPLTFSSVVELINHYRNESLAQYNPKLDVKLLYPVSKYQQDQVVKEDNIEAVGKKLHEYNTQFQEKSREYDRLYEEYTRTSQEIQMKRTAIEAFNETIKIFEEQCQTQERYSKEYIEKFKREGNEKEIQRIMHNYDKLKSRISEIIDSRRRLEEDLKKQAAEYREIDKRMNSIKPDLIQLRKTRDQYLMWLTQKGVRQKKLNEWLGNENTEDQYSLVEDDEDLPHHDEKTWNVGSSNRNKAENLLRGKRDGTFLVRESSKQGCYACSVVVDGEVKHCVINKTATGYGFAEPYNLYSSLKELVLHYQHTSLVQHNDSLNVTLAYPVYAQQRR

What is called EC50 is the concentration giving half of the maximal effect. By IC50 is commonly meant the concentration needed to halve the response being measured. In test [1], `Nc1ccc(-c2cc(Nc3ccc(OC(CO)CO)nc3)nc(N3CCOCC3)n2)cn1` [Compound 271] came in with an EC50 of under 25000 nM. For the same compound, at PI3 kinase alpha, the IC50 was under 1000 nM.
In the same order, the values of `CN1CCN(Cc2cncc(-c3cc(-c4ccc(N)nc4)nc(N4CCOCC4)n3)c2)CC1` [Compound 273] are under 10000 nM and under 1000 nM.
Taken in the same sequence, the figures for `Nc1ncc(-c2cc(-c3cncc(O)c3)nc(N3CCOCC3)n2)cn1` [Compound 274] were under 1000 nM and under 1000 nM.
In the same order, the values of `COc1cncc(-c2cc(-c3ccc(N)nc3)nc(N3CCOCC3)n2)c1` [Compound 275] are under 1000 nM and under 1000 nM.
In the case of `CN1CCC(Oc2ccc(Nc3cc(-c4ccc(N)nc4)nc(N4CCOCC4)n3)cn2)CC1` [Compound 276], the EC50 in test [1] is under 10000 nM. Besides, the IC50 on PI3 kinase alpha was under 1000 nM.
Taken in the same sequence, the figures for `CN1CCC(Oc2ccc(-c3cc(-c4cnc(N)nc4)nc(N4CCOCC4)n3)cn2)CC1` [Compound 277] were under 10000 nM and under 1000 nM.
In test [1], `Nc1ncc(-c2cc(-c3ccc(F)nc3)nc(N3CCOCC3)n2)cn1` [Compound 278] displayed an EC50 of under 10000 nM. The half-inhibitory concentration (IC50) on PI3 kinase alpha was under 1000 nM.
In the same order, the values of `Nc1ncc(-c2cc(-c3cnc(N)nc3)nc(N3CCOCC3)n2)cn1` [Compound 279] are under 10000 nM and under 1000 nM.
`Nc1ncc(-c2cc(-c3cccc4ncccc34)nc(N3CCOCC3)n2)cn1` [Compound 280] gave an EC50 in test [1] of under 10000 nM. For the same compound, at PI3 kinase alpha, the IC50 was under 1000 nM.
Taken in the same sequence, the figures for `Nc1cc(C(F)(F)F)c(-c2cc(Nc3ccc(-c4nn[nH]n4)cc3)nc(N3CCOCC3)n2)cn1` [Compound 281] were under 25000 nM and under 1000 nM.
In the same order, the values of `Nc1cc(C(F)(F)F)c(-c2cc(Nc3ccc(-c4nn[nH]n4)nc3)nc(N3CCOCC3)n2)cn1` [Compound 282] are under 25000 nM and under 1000 nM.
In the same order, the values of `N#Cc1ccc(Nc2cc(-c3cnc(N)cc3C(F)(F)F)nc(N3CCOCC3)n2)cc1` [Compound 283] are under 10000 nM and under 1000 nM.
`N#Cc1ccc(Nc2cc(-c3cnc(N)cc3C(F)(F)F)nc(N3CCOCC3)n2)cn1` [Compound 284]: in test [1], the EC50 is under 10000 nM. Also, on PI3 kinase alpha, the IC50 was under 1000 nM.
In test [1], `COc1nc2ccccc2cc1Nc1cc(-c2ccc(N)nc2)nc(N2CCOCC2)n1` [Compound 287] returned an EC50 of under 10000 nM. Moreover, on PI3 kinase alpha, the IC50 was under 1000 nM.
Taken in the same sequence, the figures for `CN1CCC(C(=O)Nc2cc(-c3cnc(N)nc3)nc(N3CCOCC3)n2)CC1` [Compound 289] were under 10000 nM and under 1000 nM.
Taken in the same sequence, the figures for `Nc1ncc(-c2cc(NC(=O)[C@@H]3CCCO3)nc(N3CCOCC3)n2)cn1` [Compound 290] were under 10000 nM and under 1000 nM.
Taken in the same sequence, the figures for `Nc1ncc(-c2cc(NC(=O)Cc3cccnc3)nc(N3CCOCC3)n2)cn1` [Compound 291] were under 25000 nM and under 1000 nM.
Compound `Nc1ccc(-c2cc(Sc3ccncc3)nc(N3CCOCC3)n2)cn1` [Compound 294] showed an EC50 in test [1] of under 10000 nM. The IC50 on PI3 kinase alpha was under 1000 nM.
Taken in the same sequence, the figures for `Nc1ccc(-c2cc(Sc3ccccn3)nc(N3CCOCC3)n2)cn1` [Compound 295] were under 10000 nM and under 1000 nM.
In test [1], `Nc1ccc(-c2cc(Nc3ccc(N4CCNCC4)nc3)nc(N3CCOCC3)n2)cn1` [Compound 299] showed an EC50 of under 10000 nM. Further, the IC50 on PI3 kinase alpha was under 1000 nM.
In test [1], `CN1CCN(c2ccc(Nc3cc(-c4ccc(N)nc4)nc(N4CCOCC4)n3)cn2)CC1` [Compound 300] had an EC50 of under 10000 nM. Moreover, the IC50 on PI3 kinase alpha is under 1000 nM.
Taken in the same sequence, the figures for `Nc1cc(-c2cnc(N)nc2)nc(N2CCOCC2)n1` [Compound 301] were under 25000 nM and under 1000 nM.
In test [1], `COc1ccc(CCNc2cc(-c3ccc(N)nc3)nc(N3CCOCC3)n2)cc1` [Compound 302] registered an EC50 of under 25000 nM. In addition, the IC50 at PI3 kinase alpha was under 10000 nM.
Taken in the same sequence, the figures for `COc1cccc(CCNc2cc(-c3ccc(N)nc3)nc(N3CCOCC3)n2)c1` [Compound 303] were under 10000 nM and under 1000 nM.
Taken in the same sequence, the figures for `COc1ccccc1CCNc1cc(-c2ccc(N)nc2)nc(N2CCOCC2)n1` [Compound 304] were under 25000 nM and under 1000 nM.
In the same order, the values of `Nc1ccc(-c2cc(Nc3ccc(F)cc3)nc(N3CCOCC3)n2)cn1` [Compound 305] are under 10000 nM and under 1000 nM.
In turn, `COc1ccccc1Nc1cc(-c2cnc(N)nc2)nc(N2CCOCC2)n1` [Compound 306] had an EC50 in test [1] of under 10000 nM. The IC50 on PI3 kinase alpha is under 1000 nM.
In test [1], `N#Cc1cccc(Nc2cc(-c3cnc(N)nc3)nc(N3CCOCC3)n2)c1` [Compound 307] came in with an EC50 of under 10000 nM. Also, at PI3 kinase alpha, the IC50 was under 1000 nM.
Compound `COc1cccc(Nc2cc(-c3cnc(N)nc3)nc(N3CCOCC3)n2)c1` [Compound 308] displayed an EC50 in test [1] of under 10000 nM. In addition, on PI3 kinase alpha, the IC50 is under 1000 nM.
In the same order, the values of `COc1cc2cc(Nc3cc(-c4ccc(N)nc4)nc(N4CCOCC4)n3)cnc2cc1OC` [Compound 311] are under 1000 nM and under 1000 nM.
Taken in the same sequence, the figures for `Nc1cc(C(F)(F)F)c(-c2nc(N3CCOCC3)nc(N3CCOCC3)c2F)cn1` [Compound 313] were under 25000 nM and under 1000 nM.
In test [1], `Nc1cc(C(F)(F)F)c(-c2cc(Nc3cccc(CN4CCOCC4)c3)nc(N3CCOCC3)n2)cn1` [Compound 314] registered an EC50 of under 25000 nM. The IC50 at PI3 kinase alpha was under 1000 nM.
Take `CN1CCN(S(=O)(=O)c2cccc(Nc3cc(-c4cnc(N)cc4C(F)(F)F)nc(N4CCOCC4)n3)c2)CC1` [Compound 315]: the EC50 in test [1] is under 10000 nM. The IC50 at PI3 kinase alpha is under 1000 nM.
Taken in the same sequence, the figures for `Nc1cc(C(F)(F)F)c(-c2cc(Nc3cccc(S(=O)(=O)N4CCOCC4)c3)nc(N3CCOCC3)n2)cn1` [Compound 316] were under 10000 nM and under 1000 nM.
The compound `N#Cc1cc(N)ncc1-c1cc(-c2cnc(N)cc2C#N)nc(N2CCOCC2)n1` [Compound 317] had an EC50 in test [1] of under 10000 nM. In addition, on PI3 kinase alpha, the IC50 is under 1000 nM.
In the same order, the values of `Nc1cc(C(F)(F)F)c(-c2cc(Nc3cccc(S(=O)(=O)CCO)c3)nc(N3CCOCC3)n2)cn1` [Compound 318] are under 10000 nM and under 1000 nM.
In the same order, the values of `NC(=O)C1CN(c2cc(-c3cnc(N)cc3C(F)(F)F)nc(N3CCOCC3)n2)CCO1` (stereo not drawn) [Compound 320] are under 10000 nM and under 1000 nM.
In the same order, the values of `Nc1ncc(-c2cc(NC3CCOCC3)nc(N3CCOCC3)n2)c(C(F)(F)F)n1` [Compound 321] are under 10000 nM and under 1000 nM.
In the case of `Nc1cc(C(F)(F)F)c(-c2cc(NC3CCOCC3)nc(N3CCOCC3)n2)cn1` [Compound 322], the EC50 in test [1] was under 25000 nM. Moreover, at PI3 kinase alpha, the IC50 was under 1000 nM.
In the same order, the values of `Nc1cc(C(F)(F)F)c(-c2cc(N3CCC(O)CC3)nc(N3CCOCC3)n2)cn1` [Compound 323] are under 25000 nM and under 1000 nM.
In the same order, the values of `Nc1cc(C(F)(F)F)c(-c2cc(N3CCC(=O)CC3)nc(N3CCOCC3)n2)cn1` [Compound 324] are under 10000 nM and under 1000 nM.
Taken in the same sequence, the figures for `Nc1cc(C(F)(F)F)c(-c2cc(N3CCOC(C(=O)N4CCOCC4)C3)nc(N3CCOCC3)n2)cn1` (stereo not drawn) [Compound 325] were under 25000 nM and under 1000 nM.
